Counter-ions that a name gives are not always drawn.
How the values were obtained:
[1] = biological target: T1, σ1-receptor (Cavia porcellus, UniProt Q60492); assay: Sigma-1 receptor binding, [3H](+)-pentazocine, brain membranes; parameters: species or system guinea pig; settings: for inhibition at 0.1 µM: 10^−7 M
T1 construct: guinea pig brains were homogenized; from tissue; host or cells: guinea pig brain membranes
Description: Brain membrane preparation and binding assays for the σ1-receptor were performed as described (DeHaven-Hudkins et al., 1992) with some modifications. In brief, guinea pig brains were homogenized in 10 vols. (w/v) of Tris-HCl 50 mM 0.32 M sucrose, pH 7.4, with a Kinematica Polytron PT 3000 at 15000 r.p.m. for 30 s. The homogenate was centrifuged at 1000 g for […] at 4° C. and the supernatants collected and centrifuged again at 48000 g for 15 min at 4° C. The pellet was resuspended in 10 volumes of Tris-HCl buffer (50 mM, pH 7.4), incubated at 37° C. for 30 min, and centrifuged at 48000 g for 20 min at 4° C. Following this, the pellet was resuspended in fresh Tris-HCl buffer (50 mM, pH 7.4) and stored on ice until use.
Each assay tube contained 10 μL of [^3H](+)-pentazocine (final concentration of 0.5 nM), 900 μL of the tissue suspension to a final assay volume of 1 mL and a final tissue concentration of approximately 30 mg tissue net weight/mL. […] All tubes were incubated at 37° C. for 150 min before termination of the reaction by rapid filtration over Schleicher & Schuell GF 3362 glass fibre filters [previously soaked in a solution of 0.5% polyethylenimine for at least 1 h]. Filters were then washed with four times with 4 mL of cold Tris-HCl buffer (50 mM, pH 7.4). Following addition of scintillation cocktail, the samples were allowed to equilibrate overnight. The amount of bound radioactivity was determined by liquid scintillation spectrometry using a Wallac Winspectral 1414 liquid scintillation counter. Protein concentrations were determined by the method of Lowry et al. (1951).

T1 sequence (Q60492 whole entry): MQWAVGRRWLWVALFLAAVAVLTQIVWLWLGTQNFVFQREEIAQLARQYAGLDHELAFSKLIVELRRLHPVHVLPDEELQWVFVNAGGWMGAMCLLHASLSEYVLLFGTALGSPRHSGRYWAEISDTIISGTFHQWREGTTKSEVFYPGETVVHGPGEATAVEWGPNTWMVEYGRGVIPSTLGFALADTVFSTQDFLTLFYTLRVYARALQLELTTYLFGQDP

Compound | melting point | inhibition at 0.1 µM [1] [%] | Ki [1] [nM]
COc1ccc(-n2nc(OCCN3CCOCC3)cc2C)cc1.Cl | 169 to 173 °C | – | –
Cl.Clc1ccc(-n2nc(OCCn3ccnc3)cc2-c2ccccc2)cc1Cl | 147 to 155 °C | – | –
CCN(CC)CCOc1nn(-c2ccc(Cl)c(Cl)c2)c(C)c1C.Cl | 134 to 136 °C | – | –
Cc1c(OCCN2CCCC2)nn(-c2ccc(Cl)c(Cl)c2)c1C.Cl | 146 to 148 °C | – | –
Cc1c(OCCCN2CCCC2)nn(-c2ccc(Cl)c(Cl)c2)c1C.Cl | 155 to 157 °C | – | –
Cl.Clc1ccc(-n2ccc(OCCCCN3CCOCC3)n2)cc1Cl | 165 to 169 °C | – | –
C[C@@H]1CN(CCCCOc2ccn(-c3ccc(Cl)c(Cl)c3)n2)C[C@H](C)O1.Cl | 149 to 154 °C | – | –
Cl.Clc1ccc(-n2ccc(OCCCCN3CCCCC3)n2)cc1Cl | 156 to 161 °C | – | –
Cl.Clc1ccc(-n2ccc(OCCCCN3CCCC3)n2)cc1Cl | 181 to 186 °C | – | –
CCN(CC)CCCCOc1ccn(-c2ccc(Cl)c(Cl)c2)n1.O=C(O)C(=O)O | 130 to 135 °C | – | –
COCCN(C)CCCCOc1ccn(-c2ccc(Cl)c(Cl)c2)n1.O=C(O)C(=O)O | 97 to 100 °C | – | –
Clc1ccc(-n2ccc(OCCCCN3CCSCC3)n2)cc1Cl.O=C(O)C(=O)O | 175 to 177 °C | – | –
CC(=O)c1c(OCCN2CCOCC2)nn(-c2ccc(Cl)c(Cl)c2)c1C.O=C(O)C(=O)O | 188 to 192 °C | – | –
CC(=O)c1c(OCCN2CCCC2)nn(-c2ccc(Cl)c(Cl)c2)c1C.O=C(O)C(=O)O | 159 to 162 °C | – | –
CC(=O)c1c(OCCN2CCCCC2)nn(-c2ccc(Cl)c(Cl)c2)c1C.O=C(O)C(=O)O | 158 to 161 °C | – | –
CCN(CC)CCOc1nn(-c2ccc(Cl)c(Cl)c2)c(C)c1C(C)=O.O=C(O)C(=O)O | 147 to 149 °C | – | –
Clc1ccc(-n2ccc(OCCN3CCOCC3)n2)cc1Cl (as salt: hydrochloride) [Example 37, 4-{2-[1-(3,4-dichlorophenyl)-1H-pyrazol-3-yloxy]ethyl}morpholine] | 162 to 166 °C | – | –
Clc1ccc(-n2ccc(OCCN3CCCC3)n2)cc1Cl (as salt: hydrochloride) [Example 39, 1-(3,4-dichlorophenyl)-3-[2-(pyrrolidin-1-yl)ethoxy]-1H-pyrazole] | 172 to 176 °C | – | –
Clc1ccc(-n2ccc(OCCN3CCCCC3)n2)cc1Cl (as salt: hydrochloride) [Example 40, 1-{2-[1-(3,4-dichlorophenyl)-1H-pyrazol-3-yloxy]ethyl}piperidine] | 172 to 177 °C | – | –
Clc1ccc(-n2ccc(OCCCN3CCCC3)n2)cc1Cl (as salt: hydrochloride) [Example 41, 1-(3,4-dichlorophenyl)-3-[3-(pyrrolidin-1-yl)propoxy]-1H-pyrazole] | 156 to 159 °C | – | –

Compound | melting point | inhibition at 0.1 µM [1] [%] | Ki [1] [nM]
Cc1cc(OCCN2CCCC2)nn1-c1ccc(Cl)c(Cl)c1.Cl [Example 3, 1-(3,4-Dichlorophenyl)-5-methyl-3-[2-(pyrrolidin-1-yl)ethoxy]-1H-pyrazole hydrochloride] | > 280 °C (dec.) | 102 | –
Cc1cc(OCCCN2CCCC2)nn1-c1ccc(Cl)c(Cl)c1.Cl [Example 4, 1-(3,4-Dichlorophenyl)-5-methyl-3-[3-(pyrrolidin-1-yl)propoxy]-1H-pyrazole hydrochloride] | 149 to 155 °C | 98 | –
Cc1cc(OCCN2CCCCC2)nn1-c1ccc(Cl)c(Cl)c1 [Example 5, 1-{2-[1-(3,4-dichlorophenyl)-5-methyl-1H-pyrazol-3-yloxy]ethyl}piperidine] | 119 to 122 °C | 108 | –
Cc1cc(OCCn2ccnc2)nn1-c1ccc(Cl)c(Cl)c1 [Example 6, 1-{2-[1-(3,4-dichlorophenyl)-5-methyl-1H-pyrazol-3-yloxy]ethyl}-1H-imidazole] | 111 to 112 °C | – | –
Cc1cc(OCCN2CCC(n3cnc4cccnc43)CC2)nn1-c1ccc(Cl)c(Cl)c1 [Example 7, 3-{1-[2-(1-(3,4-Dichlorophenyl)-5-methyl-1H-pyrazol-3-yloxy)ethyl]piperidin-4-yl}-3H-imidazo[4,5-b]pyridine] | 104 to 107 °C | 94.4 | –
Cl.Clc1ccc(-n2nc(OCCN3CCOCC3)cc2-c2ccccc2)cc1Cl [Example 16, 4-{2-[1-(3,4-Dichlorophenyl)-5-phenyl-1H-pyrazol-3-yloxy]ethyl}morpholine hydrochloride] | 197 to 207 °C | 46.5 | –
Cl.Clc1ccc(-n2nc(OCCN3CCCC3)cc2-c2ccccc2)cc1Cl [Example 17, 1-(3,4-Dichlorophenyl)-5-phenyl-3-[2-(pyrrolidin-1-yl)ethoxy]-1H-pyrazole hydrochloride] | 137 to 147 °C | 47.3 | –
Cl.Clc1ccc(-n2nc(OCCN3CCc4ccccc4C3)cc2-c2ccccc2)cc1Cl [Example 21, 2-{2-[1-(3,4-Dichlorophenyl)-5-phenyl-1H-pyrazol-3-yloxy]ethyl}-1,2,3,4-tetrahydroisoquinoline hydrochloride] | 185 to 189 °C | 45.5 | –
Cc1cc(OCCCCN2CCOCC2)nn1-c1ccc(Cl)c(Cl)c1.Cl [Example 22, 4-{4-[1-(3,4-Dichlorophenyl)-5-methyl-1H-pyrazol-3-yloxy]butyl}morpholine hydrochloride] | 150 to 154 °C | 97 | 2.5
Cc1cc(OCCCCN2CCCCC2)nn1-c1ccc(Cl)c(Cl)c1.Cl [Example 24, 1-{4-[1-(3,4-Dichlorophenyl)-5-methyl-1H-pyrazol-3-yloxy]butyl}piperidine hydrochloride] | 156 to 161 °C | 110 | 0.5
Cc1cc(OCCCCN2CCN(C)CC2)nn1-c1ccc(Cl)c(Cl)c1.Cl.Cl [Example 25, 1-{4-[1-(3,4-Dichlorophenyl)-5-methyl-1H-pyrazol-3-yloxy]butyl}-4-methylpiperazine dihydrochloride] | 181 to 185 °C | 94.2 | 3.9
Cc1cc(OCCCCN2CCC(c3ccccc3)CC2)nn1-c1ccc(Cl)c(Cl)c1.Cl [Example 28, 1-{4-[1-(3,4-dichlorophenyl)-5-methyl-1H-pyrazol-3-yloxy]butyl}-4-phenylpiperidine hydrochloride] | 166 to 170 °C | 95.1 | –
CC(C)c1cc(OCCN2CCOCC2)nn1-c1ccc(Cl)c(Cl)c1.Cl [Example 31, 4-{2-[1-(3,4-dichlorophenyl)-5-isopropyl-1H-pyrazol-3-yloxy]ethyl}morpholine hydrochloride] | 195 to 197 °C | 68.6 | –
CC(C)c1cc(OCCN2CCCC2)nn1-c1ccc(Cl)c(Cl)c1.Cl [Example 33, 1-(3,4-Dichlorophenyl)-5-isopropyl-3-[2-(pyrrolidin-1-yl)ethoxy]-1H-pyrazole hydrochloride] | 138 to 142 °C | 87.1 | –
CC(C)c1cc(OCCCN2CCCC2)nn1-c1ccc(Cl)c(Cl)c1.Cl [Example 34, 1-(3,4-Dichlorophenyl)-5-isopropyl-3-[3-(pyrrolidin-1-yl)propoxy]-1H-pyrazole hydrochloride] | 152 to 156 °C | 104 | 12.4
CC(C)c1cc(OCCN2CCc3ccccc3C2)nn1-c1ccc(Cl)c(Cl)c1.Cl [Example 36, 2-{2-[1-(3,4-dichlorophenyl)-5-isopropyl-1H-pyrazol-3-yloxy]ethyl}-1,2,3,4-tetrahydroisoquinoline hydrochloride] | 186 to 191 °C | 52.7 | –
Cc1c(OCCN2CCCCC2)nn(-c2ccc(Cl)c(Cl)c2)c1C [Example 48, 1-(2-(1-(3,4-Dichlorophenyl)-4,5-dimethyl-1H-pyrazol-3-yloxy)ethyl)piperidine] | 64 to 67 °C | – | –
CCN(CC)CCOc1cc(C)n(-c2ccc3ccccc3c2)n1 [Example 62, N,N-Diethyl-2-[5-methyl-1-(naphthalen-2-yl)-1H-pyrazol-3-yloxy]ethanamine] | – | 69.2 | –
Cc1cc(OCCN2CCCCC2)nn1-c1ccc2ccccc2c1.Cl [Example 63, 1-{2-[5-Methyl-1-(naphthalen-2-yl)-1H-pyrazol-3-yloxy]ethyl}piperidine hydrochloride] | 198 to 202 °C | 105 | –
Cc1cc(OCCN2CCCC2)nn1-c1ccc2ccccc2c1.Cl [Example 64, 5-Methyl-1-(naphthalen-2-yl)-3-[2-(pyrrolidin-1-yl)ethoxy]-1H-pyrazole hydrochloride] | 170 to 171 °C | 105 | –
